Data: a melting point compilation (Tetko et al.; mined from patent text by program, amines drawn as free bases though some values may be those of a salt)

Work on `CC(=O)Nc1cccc(-c2ccc3nc(-c4cccnc4N)n(-c4ccc(CNC(=O)c5cccc(F)c5)cc4)c3n2)c1` yielded a melting point of 174 to 187 °C. In the case of `O=C(O)c1cn(C2CC2)c2c(F)c(N3CCC(N=Cc4ccc(Cl)cc4)C3)c(F)cc2c1=O` (configuration not stated), the melting point was 232 to 237 °C. In the case of `CC(C)NC1=NS(=O)(=O)c2cc(F)c(NC(C)C)cc2N1`, the melting point was 234 to 237 °C. Compound `O=c1sc2cc(Cl)ccc2n1CCCCl` has a melting point of 131 to 132 °C. Work on `N#CCN1CCOC(c2ccccc2)(c2ccccc2)CC1` yielded a melting point of 119 to 121 °C. Work on `CC(=NCCO)C1CCC2C3CCC4CC(O)C(N5CCOC(C)C5)CC4(C)C3CCC12C` (configuration not stated) yielded a melting point of 162 to 165 °C. `CNc1nc(-c2cccc([N+](=O)[O-])c2)c2cc(OC)c(OC)cc2n1` gave a melting point of 218 to 220 °C. Work on `CNc1ccc(CN2CCN(C(c3ccccc3)c3ccccc3)CC2)cc1[N+](=O)[O-]` yielded a melting point of 121 °C. In the case of `NC(=O)c1c(F)ccc(OCc2cc3cc(C(F)(F)F)ccc3s2)c1F`, the melting point was 150 to 152 °C. For `CN1C(=O)C2CCCN2Cc2cc(Cl)ccc21` (configuration not stated), the melting point was 97 to 99 °C. With `COc1ccc2c(c1)C(=O)C1(O)c3ccc(C(C)C)cc3OC21O` (configuration not stated) the melting point was 98 to 102 °C. For `O=C1N(Cc2cnccn2)c2ccccc2C12COc1cc3c(cc12)OCCO3` (configuration not stated), the melting point was 216 to 218 °C. `NC(=O)Cc1ccc(C2CCCCC2)cc1` showed a melting point of 167 to 168 °C. Compound `CCCCC(=O)c1ccc(Cl)c(Cl)c1` has a melting point of 40 to 41 °C. Work on `O=[N+]([O-])c1ccc(S(=O)(=O)N2CCN(c3ccc(F)cc3)CC2)cc1` yielded a melting point of 189 to 191 °C. In the case of `C=C(c1cc(Cl)ccc1N1CCCCC1)C(C(N)=O)c1ccc(C(=O)O)cc1` (configuration not stated), the melting point was 198 to 200 °C. `CC1(C)CC2(CC(C)(C)N1O)NC(=O)N(CC1CO1)C2=O` (configuration not stated) showed a melting point of 154 °C. Compound `COc1cc(OC)cc(N2CCN(C(=S)Nc3cc4ccccc4nc3C)CC2)c1` has a melting point of 211 to 212 °C. `O=CNC(c1cccc(Cl)c1)c1ccnc2ccccc12` (configuration not stated) gave a melting point of 136 °C. `O=S(Cc1ccccn1)c1nc2cc3c(cc2[nH]1)CCC3` (configuration not stated) showed a melting point of 173 to 174 °C. For `CCCC(=O)c1cnc2c(C(=O)O)cccc2c1Nc1ccccc1C`, the melting point was 179 to 180 °C. `CCCCCCCCC1COC(c2ccc(O)cc2)OC1` (configuration not stated) showed a melting point of 96 to 97 °C. With `COC(=O)C1CCCN1C(=O)Cc1c(C)cc(C)cc1C` (configuration not stated) the melting point was 74 °C. In the case of `CCc1noc(C)c1-c1[nH]c2ccccc2c1CC(=O)O`, the melting point was 194 to 197 °C. Work on `CC(C)(C)OC(=O)N1CC[C@H](Oc2ccc([N+](=O)[O-])cc2)C1` yielded a melting point of 112 to 114 °C. For `Cc1nc2cc(Cn3ccnc3)ccc2n1Cc1cccnc1`, the melting point was 174 °C. Compound `CC(=O)N(C)C1(c2ccccc2)CCN(Cc2ccccc2)CC1` has a melting point of 104 °C. Compound `CCCCOC(=O)C(Cl)=Cc1cc(-n2c(=O)cc(C(F)(F)F)n(C)c2=O)ccc1Cl` has a melting point of 109 to 110 °C. In the case of `O=C1CN=C(c2ccccc2Br)c2cc(F)ccc2N1`, the melting point was 194 to 196 °C. `COc1ccc2c(c1)c(-c1[nH]c3nccnc3c1C)cn2C` showed a melting point of 243 to 244 °C. Work on `O=C(OC1CCCCCCC1)c1cc2cc(CCl)ccc2oc1=O` yielded a melting point of 169 to 170 °C. For `Cc1nc(NCCCOc2cccc(CN3CCCCC3)c2)sc1C`, the melting point was 123 to 125 °C. Compound `C[C@]1(CN2CCN(N=Cc3cc4cc(C(F)(F)F)ccc4o3)CC2)Cn2cc([N+](=O)[O-])nc2O1` has a melting point of 190 to 192 °C. For `C=CCc1c(O)ccc2c1CCC(=O)N2CC=C(C)C`, the melting point was 182 to 184 °C. In the case of `CN1C(=O)CC[C@]2(C)c3ccc(-c4cccc(CNC(c5ccccc5)c5ccccc5)c4)cc3CC[C@@H]12`, the melting point was 55 to 57 °C. Compound `CNC(=O)c1ccc(F)c2c1CC(N(CCCCc1c[nH]c3ccc(F)cc13)CC1CC1)CO2` (configuration not stated) has a melting point of 112 °C. `CCn1cc([C@]2(c3cccc(-c4cccnc4F)c3)N=C(N)N(C)C2=O)cc1C(C)=O` gave a melting point of 109 to 111 °C. With `COC(=O)CCCc1cc2cc(C(F)(F)F)ccc2[nH]1` the melting point was 115 °C. `Cc1c[nH]c(=O)c(NC(=O)c2ccccc2F)c1` showed a melting point of 230 to 232 °C. For `Cc1nccn1CCCCc1ccc(OCc2coc(/C=C/c3ccccc3)n2)cc1`, the melting point was 122 to 123 °C. For `CCOC(=O)c1ccccc1Cn1c(C(=O)O)cc2ccccc21`, the melting point was 136 °C. `CN1CC[C@@H](c2c(O)cc(O)c3c(=O)cc(-c4cc(F)ccc4Br)oc23)[C@@H]1CO` showed a melting point of 145 to 147 °C. With `CC/C(=N\OCCCOc1ccc(C(=O)O)c(NC(=O)c2ccc(C(F)(F)F)cc2)c1)c1ccc(C(C)(C)C)cc1` the melting point was 149 to 151 °C. Compound `COC(c1c(Cl)sc(Cl)c1Cl)C(C)N(OC)C(=O)c1cn(C)nc1C(F)F` (configuration not stated) has a melting point of 113 to 116 °C. For `CC(CNS(C)(=O)=O)Nc1nc(Cl)ncc1Cl` (configuration not stated), the melting point was 160 °C. Compound `CCCC(=O)NC(=O)C1c2ccccc2Oc2ccccc21` has a melting point of 222 °C. In the case of `Brc1ccc(-c2ccc3nncn3n2)cc1`, the melting point was 209 to 211 °C. `Cc1c(Oc2c(F)cc(C(F)(F)F)cc2Cl)nn(C(=O)OC(C)(C)C)c1C` gave a melting point of 138 to 139 °C. `CCSc1ccc(NC(=S)NC(=O)OC)c([N+](=O)[O-])c1` showed a melting point of 152 °C. `CCNC(=O)c1c(C)cccc1C(C)(C)C` showed a melting point of 110 to 112 °C. In the case of `O=C(O)c1ccc2[nH]cc(CCCCN3CC=C(c4ccccc4)CC3)c2c1`, the melting point was 284 to 285 °C. `COc1ccc(C2CCNCC2)cc1OC` gave a melting point of 98 to 100 °C. For `Cc1c(C)c2c(c(C)c1N)CC(C)(CN1CCC(OCC=Cc3ccccc3)CC1)O2` (configuration not stated), the melting point was 77 to 79 °C. In the case of `O=C1NCCc2c1cc1n2CCCC1`, the melting point was 195 to 197 °C. Compound `CC(C)(F)c1cnn2c(-c3ccc(F)c(-c4ccc(F)cc4C#N)c3F)cnc2n1` has a melting point of 166 to 169 °C. Work on `O=C(Nc1ccc(-n2nc(-c3cccnc3)cc2C(F)F)cc1)c1ccncc1F` yielded a melting point of 176 to 178 °C. `N#Cc1ccc(NC2CCN(Cc3cc(F)c(F)c(F)c3)CC2)nn1` gave a melting point of 185 °C. `CC(C)c1cccc(-c2c(-c3ccc4nn(C)cc4c3)nsc2NC(=O)[C@@H]2C[C@H]2C)n1` showed a melting point of 142 to 144 °C. Compound `CCOC(=O)C=C(C)c1ccc(C=CC=C(C)CCC=C(C)C)cc1` has a melting point of 32 to 32.5 °C. Compound `CCC(Oc1ccccc1)C(=O)OC1CC(O)C=C2C=CC(C)C(CCC3CC(O)CC(=O)O3)C21` (mixture of isomers) has a melting point of 120 to 122 °C. With `CC(=O)OCCC1CC(=O)N1` (configuration not stated) the melting point was 44 to 47 °C. For `Cc1nc(-c2ccccc2)nc(Cl)c1C`, the melting point was 120 to 122 °C. In the case of `COC(=O)C(=CN(C)C)N(C)c1nccc(-c2ccccc2)n1`, the melting point was 101 °C. With `CON(C)C(=O)c1sc(SC)c2c1CCc1sc(-c3ccccc3)nc1-2` the melting point was 157 to 158 °C. Compound `CCOC(=O)Cc1ccc(SCc2ccc(Cl)cc2C(=O)O)cc1` has a melting point of 109 to 112 °C. `Cc1ccc(N(C)S(=O)(=O)c2cccs2)c2[nH]c(C(=O)O)cc12` showed a melting point of 223 to 225 °C. With `O=C1c2ccc(-c3nnn[nH]3)cc2C(=O)c2cc(N3CCCCC3)ccc21` the melting point was 297 to 298 °C. `CC(C)(C)N1C(=O)C(=O)N(c2cc(Cl)cc(Cl)c2)S1=O` (configuration not stated) gave a melting point of 182 °C. Work on `CC1CN(C(=O)Cn2c(=O)n(C)c3nc(-c4ccccc4)ncc32)CC(C)O1` (configuration not stated) yielded a melting point of 160 to 161 °C. `NC(=O)c1ccc(F)c2c1CC(N(CCCc1c[nH]c3ccc(Cl)cc13)C1CCC1)CO2` (configuration not stated) showed a melting point of 152 to 160 °C. Compound `COc1cc2c3c(nc4ccccc4c3c1)-c1ccccc1N2C` has a melting point of 214 to 216 °C. For `O=C(Cc1cccc(Br)c1)Nc1cccc(C(=O)NO)c1`, the melting point was 184 to 186 °C. In the case of `COc1cc2c(cc1F)C(c1ccccc1Cl)=NC1=CNNC1=N2`, the melting point was 242 to 243 °C. In the case of `C=CCn1c(NNC(=O)CCCl)nc2ccccc2c1=O`, the melting point was 151 to 153 °C. For `CC(=O)c1cnc2c(c1)oc(=O)n2CCc1ccccn1`, the melting point was 138 to 140 °C. In the case of `CS(=O)(=O)Nc1cc2c(cc1Oc1ccc(F)cc1F)C(=O)CCO2`, the melting point was 164 to 165 °C. For `CC(=O)OCCCC#Cc1ccccc1S(N)(=O)=O`, the melting point was 136 to 138 °C. `CCCCc1nc(CC(NC(C)=O)(C(=O)OCC)C(=O)OCC)c[nH]1` gave a melting point of 80 to 92 °C. Work on `O=S(=O)(c1ccc(F)cc1)N1CCCC1c1ccco1` (racemic) yielded a melting point of 69 °C. `O=[N+]([O-])c1ccc(S(=O)(=O)c2ccc(Cl)cc2)nc1` showed a melting point of 177 to 180 °C. In the case of `CCS(=O)(=O)Cc1cccc(-c2nc(=O)c3ccccc3s2)n1`, the melting point was 188 to 190 °C. `CC(C)(C)c1cc2c(c(C(C)(C)C)c1)OC(=O)C2c1ccc(F)cc1` (configuration not stated) gave a melting point of 146 to 147 °C. In the case of `CC(C)Cc1nn(C)c(=O)c2cn(Cc3ccncc3)cc12`, the melting point was 91 to 93 °C. `CCCCCNC(=O)C(C)Cc1ccc2c(c1)c(Cc1ccc(C(=O)O)cc1OC)cn2C` (configuration not stated) showed a melting point of 85 to 95 °C. `Nc1nc(N2CCC2)c2ncn(C3CC(O)C(CO)C3)c2n1` (single isomer, unassigned; (+)) gave a melting point of 194 to 195 °C. For `O=C1CCCN1c1cccc(-c2ccnc3c([N+](=O)[O-])cnn23)c1`, the melting point was 226 to 228 °C. `CS(=O)(=O)c1cc(C(=O)NC(=N)N)c(NCc2ccco2)cc1Cl` showed a melting point of 96 to 102 °C. In the case of `COC(=O)NS(=O)(=O)Nc1c(C(C)C)cccc1C(C)C`, the melting point was 152 to 155 °C. Work on `O=c1c(-c2cccc(F)c2)coc2cc(O)c(O)cc12` yielded a melting point of 277 °C. Compound `CC(C)n1nc(-c2sc(N)nc2-c2ccc(F)cc2)ccc1=O` has a melting point of 256 to 257 °C. For `COc1cc(OCCN2CCOCC2)c(C=CC(=O)c2ccc(C(N)=O)cc2)cc1-c1cccs1`, the melting point was 183 to 184 °C. In the case of `OC1(CNCc2ccccn2)CCN(CCCc2c[nH]c3ccc(-n4cnnc4)cc23)CC1`, the melting point was greater than 55 °C. For `Nc1c(F)c(F)cc(C(=O)O)c1F`, the melting point was 133 to 136 °C. In the case of `COc1ccc(-c2ccc(=O)n(Cc3ccc(Cl)cc3F)c2)cn1`, the melting point was 136 °C. For `Cc1c(C)c2c(c(C)c1O)CC(CCO)O2` (racemic), the melting point was 123 to 125 °C. With `O=S(=O)(CCCl)C(c1ccccc1)S(=O)(=O)CCCl` the melting point was 106 to 108 °C. `COc1ccc(C(=O)Nc2nnn[nH]2)c(OC(C)C)c1` gave a melting point of 212 to 213 °C. `Clc1cc(CCc2ccccn2)c2oc(-c3cnc[nH]3)nc2c1` showed a melting point of 202 to 209 °C. `C=Cn1ccnc1C#N` showed a melting point of 81.5 °C. For `CC(=O)NCC1CN(c2ccc(-n3cccc3)c(F)c2)C(=O)O1` (configuration not stated), the melting point was 198 to 200 °C. For `O=C(O)CCCc1ncccc1NS(=O)(=O)c1ccccc1`, the melting point was 156 to 157 °C. With `N#Cc1ccc2c(c1)C(=O)c1ccccc1OC2` the melting point was 116 to 127 °C.
